Laboratory results published in patent publication US12599582B2, “Pyrrole compounds” (ALIGOS THERAPEUTICS, INC., priority 2019, dated 2026).

system: HBV; assay: HBV-DNA Antiviral Assay Using HepG2.2.15 Cells (extracellular HBV DNA by qPCR); format: cell-based, hepatitis B virus (HBV); settings: HBV DNA inhibition, HepG2.2.15 cells, extracellular HBV DNA by qPCR; read-out: EC50
Method in brief: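 HepG2.2.15 cells were treated on day 1 with 8 concentrations (4-fold dilutions, duplicate; 0.5% DMSO), with compound-containing medium refreshed on day 4, at 37 °C. On day 7, supernatant HBV DNA was measured by qPCR against a plasmid standard curve, with inhibition normalised between DMSO and ETV controls. EC50/EC90 and CC50 (CellTiter-Glo ATP) came from variable-slope fits.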

| SMILES | EC50 [nM] |
| --- | --- |
| Cc1c(C(=O)C(=O)NC(C)(C)c2ccc(F)cn2)c(C)n(C)c1C(=O)Nc1ccc(F)c(C(F)(F)F)c1 [Compound 147, 4-[2-[[l-(5-fluoro-2-pyridyl)-1-methyl-ethyl]amino]-2-oxo-acetyl]-N-[4-fluoro-3-(trifluoromethyl)phenyl]-1,3,5-trimethyl-pyrrole-2-carboxamide] | 1 to 10 |

same assay, conditions: Hepatitis B virus; HBV DNA inhibition, HepG2.2.15 cells, extracellular HBV DNA by qPCR; read-out: EC50

| SMILES | EC50 [nM] |
| --- | --- |
| Cc1c(C(=O)C(=O)NC(C)(C)c2cncnc2)c(C)n(C)c1C(=O)Nc1ccc(F)c(C(F)(F)F)c1 [Compound 148, N-[4-fluoro-3-(trifluoromethyl)phenyl]-1,3,5-trimethyl-4-[2-[(1-methyl-1-pyrimidin-5-yl-ethyl)amino]-2-oxo-acetyl]pyrrole-2-carboxamide] | 1 to 10 |
| Cc1c(C(=O)C(=O)NC(C)(C)c2cn(C)cn2)c(C)n(C)c1C(=O)Nc1ccc(F)c(C(F)(F)F)c1 [Compound 149, N-[4-fluoro-3-(trifluoromethyl)phenyl]-1,3,5-trimethyl-4-[2-[[1-methyl-1-(1-methylimidazol-4-yl)ethyl]amino]-2-oxo-acetyl]pyrrole-2-carboxamide] | 100 to 1000 |
| Cc1c(C(=O)C(=O)NC2(c3ccncc3)CC(F)(F)C2)c(C)n(C)c1C(=O)Nc1ccc(F)c(C(F)(F)F)c1 [Compound 150, 4-[2-[[3,3-difluoro-1-(4-pyridyl)cyclobutyl]amino]-2-oxo-acetyl]-N-[4-fluoro-3-(trifluoromethyl)phenyl]-1,3,5-trimethyl-pyrrole-2-carboxamide] | < 1 |
| Cc1c(C(=O)C(=O)NC2(c3cn[nH]c3)COC2)c(C)n(C)c1C(=O)Nc1ccc(F)c(C#N)c1 [Compound 151, N-(3-cyano-4-fluoro-phenyl)-1,3,5-trimethyl-4-[2-oxo-2-[[3-(1H-pyrazol-4-yl)oxetan-3-yl]amino]acetyl]pyrrole-2-carboxamide] | 1 to 10 |
| Cc1c(C(=O)C(=O)NC(C)(C)c2ccncn2)c(C)n(C)c1C(=O)Nc1ccc(F)c(C#N)c1 [Compound 152, N-(3-cyano-4-fluoro-phenyl)-1,3,5-trimethyl-4-[2-[(1-methyl-1-pyrimidin-4-yl-ethyl)amino]-2-oxo-acetyl]pyrrole-2-carboxamide] | 1 to 10 |
| Cc1c(C(=O)C(=O)NC(C)(C)c2ccncn2)c(C)n(C)c1C(=O)Nc1ccc(F)c(C(F)(F)F)c1 [Compound 153, N-[4-fluoro-3-(trifluoromethyl)phenyl]-1,3,5-trimethyl-4-[2-[(1-methyl-1-pyrimidin-4-yl-ethyl)amino]-2-oxo-acetyl]pyrrole-2-carboxamide] | < 1 |
| Cc1c(C(=O)C(=O)NC2(c3ncc[nH]3)COC2)c(C)n(C)c1C(=O)Nc1ccc(F)c(C(F)(F)F)c1 [Compound 155, N-[4-fluoro-3-(trifluoromethyl)phenyl]-4-[2-[[3-(1H-imidazol-2-yl)oxetan-3-yl]amino]-2-oxo-acetyl]-1,3,5-trimethyl-pyrrole-2-carboxamide] | 1 to 10 |
| Cc1c(C(=O)C(=O)NC2(c3c[nH]cn3)COC2)c(C)n(C)c1C(=O)Nc1ccc(F)c(C(F)(F)F)c1 [Compound 156, N-[4-fluoro-3-(trifluoromethyl)phenyl]-4-[2-[[3-(1H-imidazol-4-yl)oxetan-3-yl]amino]-2-oxo-acetyl]-1,3,5-trimethyl-pyrrole-2-carboxamide] | < 1 |
| Cc1c(C(=O)C(=O)NC2(c3c[nH]cn3)COC2)c(C)n(C)c1C(=O)Nc1ccc(F)c(C#N)c1 [Compound 157, N-(3-cyano-4-fluoro-phenyl)-4-[2-[[3-(1H-imidazol-4-yl)oxetan-3-yl]amino]-2-oxo-acetyl]-1,3,5-trimethyl-pyrrole-2-carboxamide] | 1 to 10 |
| Cc1c(C(=O)C(=O)NC2(c3cn[nH]c3)COC2)c(C)n(C)c1C(=O)Nc1ccc(F)c(C(F)(F)F)c1 [Compound 158, N-[4-fluoro-3-(trifluoromethyl)phenyl]-1,3,5-trimethyl-4-[2-oxo-2-[[3-(1H-pyrazol-4-yl)oxetan-3-yl]amino]acetyl]pyrrole-2-carboxamide] | < 1 |
| Cc1c(C(=O)C(=O)NC(C)(C)c2ccc[nH]c2=O)c(C)n(C)c1C(=O)Nc1ccc(F)c(C(F)(F)F)c1 [Compound 159, N-[4-fluoro-3-(trifluoromethyl)phenyl]-1,3,5-trimethyl-4-[2-[[1-methyl-1-(2-oxo-1H-pyridin-3-yl)ethyl]amino]-2-oxo-acetyl]pyrrole-2-carboxamide] | 1 to 10 |
| Cc1c(C(=O)C(=O)NC(C)(C)c2ccc3[nH]cnc3c2)c(C)n(C)c1C(=O)Nc1ccc(F)c(C#N)c1 [Compound 160, 4-[2-[[1-(1H-benzimidazol-5-yl)-1-methyl-ethyl]amino]-2-oxo-acetyl]-N-(3-cyano-4-fluoro-phenyl)-1,3,5-trimethyl-pyrrole-2-carboxamide] | 1 to 10 |
| Cc1c(C(=O)C(=O)NC(C)(C)c2ccc[nH]c2=O)c(C)n(C)c1C(=O)Nc1ccc(F)c(C#N)c1 [Compound 161, N-(3-cyano-4-fluoro-phenyl)-1,3,5-trimethyl-4-[2-[[1-methyl-1-(2-oxo-1H-pyridin-3-yl)ethyl]amino]-2-oxo-acetyl]pyrrole-2-carboxamide] | 1 to 10 |
| Cc1cc(NC(=O)c2c(C)c(C(=O)C(=O)NC(C)(C)c3ccc4[nH]cnc4c3)c(C)n2C)ccc1F [Compound 162, 4-[2-[[1-(1H-benzimidazol-5-yl)-1-methyl-ethyl]amino]-2-oxo-acetyl]-N-(4-fluoro-3-methyl-phenyl)-1,3,5-trimethyl-pyrrole-2-carboxamide] | 1 to 10 |
